Assay results reported in patent US7772180B2, “Hepatitis C virus inhibitors” (Bristol-Myers Squibb Company, priority 2006, dated 2010).
Like-named read-outs stand apart in the source and are kept apart here.

Legend:
[1] = molecular target: T1, HCV NS3/4A protease complex, BMS strain (UniProt P27958, species not given/STRAIN_BMS); experiment: FRET peptide assay to monitor HCV NS3/4A proteolytic activity (BMS strain); assay type: biochemical, Hepatitis C virus (genotype 1a); conditions: read-out: IC50 against the NS3/4A BMS strain in the enzyme assay; BMS strain
T1 construct: other: BMS strain; said of H77 and J4L6S; fused on or other part: A three-lysine solubilising tail at the C-terminus of NS4A; A His tag is implied by the pET21b vector and Ni-NTA purification; Both are printed for the H77 and J4L6S constructs and apply to BMS by inference
Summary of the method: (§1)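 Purified recombinant NS3/4A complex from genotype 1a BMS strain, 2-3 nM final, with RET S1 EDANS/DABCYL depsipeptide substrate at 2 μM final in HEPES pH 7.5, NaCl, Triton, glycerol, βME. Cleavage followed in real time by fluorescence. For high-potency compounds: 50 μg/ml BSA added, protease lowered to 300 pM.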
T1 sequence (P27958 1027-1657, stated change not applied, one chain of several): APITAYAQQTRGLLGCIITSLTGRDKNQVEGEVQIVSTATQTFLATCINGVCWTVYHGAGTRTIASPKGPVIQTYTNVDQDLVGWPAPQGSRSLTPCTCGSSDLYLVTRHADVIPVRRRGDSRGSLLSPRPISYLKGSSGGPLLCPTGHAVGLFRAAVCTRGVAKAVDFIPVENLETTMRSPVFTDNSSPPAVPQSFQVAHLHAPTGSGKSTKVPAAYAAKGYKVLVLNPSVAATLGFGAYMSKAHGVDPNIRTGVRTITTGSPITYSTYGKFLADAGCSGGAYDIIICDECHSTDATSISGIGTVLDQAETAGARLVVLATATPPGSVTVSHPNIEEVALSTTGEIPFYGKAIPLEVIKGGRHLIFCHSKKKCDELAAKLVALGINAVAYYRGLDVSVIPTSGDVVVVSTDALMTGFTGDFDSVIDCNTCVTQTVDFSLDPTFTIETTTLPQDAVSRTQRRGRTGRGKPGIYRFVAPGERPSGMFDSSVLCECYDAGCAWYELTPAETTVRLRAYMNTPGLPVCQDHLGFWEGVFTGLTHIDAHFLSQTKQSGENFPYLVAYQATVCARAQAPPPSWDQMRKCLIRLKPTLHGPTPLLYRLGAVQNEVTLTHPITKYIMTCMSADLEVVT

[2] = molecular target: T2, HCV NS3/4A protease complex, BMS strain (UniProt P27958, species not given/STRAIN_BMS); experiment: as above; assay type: biochemical, Hepatitis C virus (genotype 1a); conditions: read-out: HCV Protease (IC50); NS3/4A BMS strain; activity range class
T2 construct: other: NS3/4A BMS strain; activity range class; numeric values, unit not given; said of H77 and J4L6S; fused on or other part: A three-lysine solubilising tail at the C-terminus of NS4A; A His tag is implied by the pET21b vector and Ni-NTA purification; Both are printed for the H77 and J4L6S constructs and apply to BMS by inference
Summary of the method: as §1
T2 sequence (P27958 1027-1657, stated change not applied, one chain of several): as above

In the case of `C=C[C@@H]1C[C@]1(NC(=O)[C@@H]1C[C@@H](Oc2nc(N(C)C)cc3cc(OC)ccc23)CN1C(=O)C(Nc1cc(C)cc(C)n1)C(C)(C)C)C(=O)NS(=O)(=O)C1CC1` (single isomer, unassigned) [Compound 18], the IC50 [1] is reported as 3.4 nM and the IC50 [2] is reported as 0.6 to 20 nM.
